Values quoted from earlier work, collected in patent US20040101549A1, “Treatments” (priority 2002, published 2004).

polyestradiol phosphate [PEP]
overall and cardiovascular mortality versus maximum androgen blockade (915 patients randomized, over 6 years, Hedlund & Henriksson): equivalent | long-term cardiovascular protection (epidemiological comparison to an age-standardized population, Aro): significant long-term cardiovascular protection | reduction of short-term cardiovascular morbidity (intramuscular, first line CaP therapy, Mikkola et al): over 90%
